Test results reported in PubChem BioAssay AID1259407 (Chemical Carcinogenesis Research Information System (CCRIS), 2018).
Activity calls are given as the source filed them. No rule for the calls is given here.

System: CCRIS mutagenicity, Ames/micronucleus/aberration tests
Assay: CCRIS mutagenicity studies
[1] = Test System: AMES SALMONELLA TYPHIMURIUM, Strain/Indicator: TA1538, Metabolic Activation: RAT, LIVER, S-9, AROCLOR 1254, Method: STANDARD PLATE
[2] = Test System: AMES SALMONELLA TYPHIMURIUM, Strain/Indicator: TA98, Metabolic Activation: NONE, Method: PREINCUBATION
[3] = Test System: AMES SALMONELLA TYPHIMURIUM, Strain/Indicator: TA100, Metabolic Activation: NONE, Method: PREINCUBATION
[4] = Test System: AMES SALMONELLA TYPHIMURIUM, Strain/Indicator: TA1535, Metabolic Activation: NONE, Method: PREINCUBATION
[5] = Test System: AMES SALMONELLA TYPHIMURIUM, Strain/Indicator: TA1537, Metabolic Activation: NONE, Method: PREINCUBATION

Measured: mutagenic call

[O]=[V](=[O])[OH]
active: Test System: AMES SALMONELLA TYPHIMURIUM, Strain/Indicator: TA100, Metabolic Activation: NONE, Method: FLUCTUATION TEST active; positive | Test System: AMES SALMONELLA TYPHIMURIUM, Strain/Indicator: TA1535, Metabolic Activation: NONE, Method: STANDARD PLATE (PH 7.8, MEDIUM WITH TRIMETAPHOSPHATE IONS) active; positive | Test System: CHINESE HAMSTER G12, Strain/Indicator: G12/6-THIOGUANINE, Metabolic Activation: NONE active; positive
inactive: Test System: CHINESE HAMSTER V-79, Strain/Indicator: V-79/6-THIOGUANINE, Metabolic Activation: MOUSE, LIVER, S-9 inactive; negative | Test System: E. COLI, Strain/Indicator: WP2 UVRA, Metabolic Activation: NONE, Method: SPOT TEST inactive; negative

O=[N+]([O-])/C(Br)=C\c1ccccc1
inactive: Test System: AMES SALMONELLA TYPHIMURIUM, Strain/Indicator: TA98, Metabolic Activation: HAMSTER, LIVER, S-9, AROCLOR 1254, Method: STANDARD PLATE inactive; negative | Test System: AMES SALMONELLA TYPHIMURIUM, Strain/Indicator: TA98, Metabolic Activation: NONE, Method: STANDARD PLATE inactive; negative | Test System: AMES SALMONELLA TYPHIMURIUM, Strain/Indicator: TA98, Metabolic Activation: RAT, LIVER, S-9, AROCLOR 1254, Method: STANDARD PLATE inactive; negative | Test System: AMES SALMONELLA TYPHIMURIUM, Strain/Indicator: TA100, Metabolic Activation: HAMSTER, LIVER, S-9, AROCLOR 1254, Method: STANDARD PLATE inactive; negative | Test System: AMES SALMONELLA TYPHIMURIUM, Strain/Indicator: TA100, Metabolic Activation: NONE, Method: STANDARD PLATE inactive; negative | Test System: AMES SALMONELLA TYPHIMURIUM, Strain/Indicator: TA100, Metabolic Activation: RAT, LIVER, S-9, AROCLOR 1254, Method: STANDARD PLATE inactive; negative | Test System: AMES SALMONELLA TYPHIMURIUM, Strain/Indicator: TA1535, Metabolic Activation: HAMSTER, LIVER, S-9, AROCLOR 1254, Method: STANDARD PLATE inactive; negative | Test System: AMES SALMONELLA TYPHIMURIUM, Strain/Indicator: TA1535, Metabolic Activation: NONE, Method: STANDARD PLATE inactive; negative | Test System: AMES SALMONELLA TYPHIMURIUM, Strain/Indicator: TA1535, Metabolic Activation: RAT, LIVER, S-9, AROCLOR 1254, Method: STANDARD PLATE inactive; negative | Test System: AMES SALMONELLA TYPHIMURIUM, Strain/Indicator: TA1537, Metabolic Activation: HAMSTER, LIVER, S-9, AROCLOR 1254, Method: STANDARD PLATE inactive; negative | Test System: AMES SALMONELLA TYPHIMURIUM, Strain/Indicator: TA1537, Metabolic Activation: NONE, Method: STANDARD PLATE inactive; negative | Test System: AMES SALMONELLA TYPHIMURIUM, Strain/Indicator: TA1537, Metabolic Activation: RAT, LIVER, S-9, AROCLOR 1254, Method: STANDARD PLATE inactive; negative | Test System: AMES SALMONELLA TYPHIMURIUM, Strain/Indicator: TA1538, Metabolic Activation: HAMSTER, LIVER, S-9, AROCLOR 1254, Method: STANDARD PLATE inactive; negative | Test System: AMES SALMONELLA TYPHIMURIUM, Strain/Indicator: TA1538, Metabolic Activation: NONE, Method: STANDARD PLATE inactive; negative | [1] inactive; negative | Test System: MOUSE LYMPHOMA, Strain/Indicator: L5178Y (TK+/TK-), Metabolic Activation: NONE, Method: SUSPENSION/PLATE inactive; negative. reevaluation of results: negative | Test System: MOUSE LYMPHOMA, Strain/Indicator: L5178Y (TK+/TK-), Metabolic Activation: RAT, LIVER, S-9, AROCLOR 1254, Method: SUSPENSION/PLATE inactive; negative. reevaluation of results: negative

COc1cc(-c2ccc(N/N=C3\C(=O)c4c(O)cc(S(=O)(=O)O)cc4C=C3S(=O)(=O)O)c(OC)c2)ccc1N/N=C1\C(=O)c2c(O)cc(S(=O)(=O)O)cc2C=C1S(=O)(=O)O
inactive: Test System: AMES SALMONELLA TYPHIMURIUM, Strain/Indicator: TA98, Metabolic Activation: HAMSTER, LIVER, S-9, AROCLOR 1254 (10%), Method: PREINCUBATION inactive; negative | [2] inactive; negative | Test System: AMES SALMONELLA TYPHIMURIUM, Strain/Indicator: TA98, Metabolic Activation: RAT, LIVER, S-9, AROCLOR 1254 (10%), Method: PREINCUBATION inactive; negative | Test System: AMES SALMONELLA TYPHIMURIUM, Strain/Indicator: TA100, Metabolic Activation: HAMSTER, LIVER, S-9, AROCLOR 1254 (10%), Method: PREINCUBATION inactive; negative | [3] inactive; negative | Test System: AMES SALMONELLA TYPHIMURIUM, Strain/Indicator: TA100, Metabolic Activation: RAT, LIVER, S-9, AROCLOR 1254 (10%), Method: PREINCUBATION inactive; negative | Test System: AMES SALMONELLA TYPHIMURIUM, Strain/Indicator: TA1535, Metabolic Activation: HAMSTER, LIVER, S-9, AROCLOR 1254 (10%), Method: PREINCUBATION inactive; negative | [4] inactive; negative | Test System: AMES SALMONELLA TYPHIMURIUM, Strain/Indicator: TA1535, Metabolic Activation: RAT, LIVER, S-9, AROCLOR 1254 (10%), Method: PREINCUBATION inactive; negative | Test System: AMES SALMONELLA TYPHIMURIUM, Strain/Indicator: TA1537, Metabolic Activation: HAMSTER, LIVER, S-9, AROCLOR 1254 (10%), Method: PREINCUBATION inactive; negative | [5] inactive; negative | Test System: AMES SALMONELLA TYPHIMURIUM, Strain/Indicator: TA1537, Metabolic Activation: RAT, LIVER, S-9, AROCLOR 1254 (10%), Method: PREINCUBATION inactive; negative | [1] inactive; negative

CCCC(=O)O[C@H]1[C@H](C)O[C@@H](O[C@H]2[C@H](N(C)C)[C@@H](O)[C@H](O[C@H]3[C@@H](CC=O)C[C@@H](C)[C@@H](O)/C=C/C=C/C[C@@H](C)OC(=O)C[C@@H](O)[C@@H]3OC)O[C@@H]2C)C[C@@]1(C)OC(=O)CC
inactive: [2] inactive; negative | Test System: AMES SALMONELLA TYPHIMURIUM, Strain/Indicator: TA98, Metabolic Activation: RAT, LIVER, S-9, AROCLOR 1254, Method: PREINCUBATION inactive; negative | [3] inactive; negative | Test System: AMES SALMONELLA TYPHIMURIUM, Strain/Indicator: TA100, Metabolic Activation: RAT, LIVER, S-9, AROCLOR 1254, Method: PREINCUBATION inactive; negative | [4] inactive; negative | Test System: AMES SALMONELLA TYPHIMURIUM, Strain/Indicator: TA1535, Metabolic Activation: RAT, LIVER, S-9, AROCLOR 1254, Method: PREINCUBATION inactive; negative | [5] inactive; negative | Test System: AMES SALMONELLA TYPHIMURIUM, Strain/Indicator: TA1537, Metabolic Activation: RAT, LIVER, S-9, AROCLOR 1254, Method: PREINCUBATION inactive; negative | Test System: AMES SALMONELLA TYPHIMURIUM, Strain/Indicator: TA1538, Metabolic Activation: NONE, Method: PREINCUBATION inactive; negative | Test System: AMES SALMONELLA TYPHIMURIUM, Strain/Indicator: TA1538, Metabolic Activation: RAT, LIVER, S-9, AROCLOR 1254, Method: PREINCUBATION inactive; negative | Test System: E. COLI, Strain/Indicator: WP2 UVRA, Metabolic Activation: NONE, Method: PREINCUBATION inactive; negative | Test System: E. COLI, Strain/Indicator: WP2 UVRA, Metabolic Activation: RAT, LIVER, S-9, AROCLOR 1254, Method: PREINCUBATION inactive; negative
